In brackets after ≈: the same amount, converted by molar mass.
Details: buffer; pH 7.4; 200.0 µM

Compound | solubility kinetic [µg/mL]
CC(C)(C)NC(=O)CSc1nc(-c2ccc(F)cc2)cs1 | 6.6 (≈ 20.3 µM)
O=C(COC(=O)c1cccc(Br)c1)NCc1ccco1 | 19 (≈ 56.2 µM)
Cc1ccc2cc([N+](=O)[O-])ccc2n1 | 20.5 (≈ 109 µM)
CCOC(=O)Cc1cnc(N)s1 | 27.6 (≈ 148 µM)
CCOC(=O)c1ccc(S(=O)(=O)N2CCN(C(C)=O)CC2)cc1 | > 51.1
CCOC(=O)c1cc2c(=O)c3ccccc3oc2nc1C | 2.1 (≈ 7.41 µM)
CC(Sc1nncs1)C(=O)Nc1ccc2c(c1)OCCO2 (stereo not given) | > 48.5
CSc1ccccc1C(=O)N1CCc2ccccc2C1 | > 42.5
Cl.O=C(CN1CCCCC1)c1ccc(F)cc1 | > 38.7
CC1CCN(CC(=O)Nc2nc(-c3ccccc3)cs2)CC1 | 12.9 (≈ 40.9 µM)
COc1ccc(NC(=O)CCn2cc(C)c3ccccc32)cc1 | 4.4 (≈ 14.3 µM)
Brc1ccc(-n2cnc(-c3ccccc3)c2)cc1 | 1 (≈ 3.34 µM)
Cc1ccccc1Oc1nc(-c2ccccn2)nc2ccccc12 | 35 (≈ 112 µM)
S=C(NCc1ccco1)N1CCN(c2cccc(Cl)c2)CC1 | 12 (≈ 35.7 µM)
Cc1cc(C)c(C)c(OCC(=O)O/N=C(\N)c2ccncc2)c1 | 28.5 (≈ 91 µM)
Cc1ccccc1OCC(=O)Nc1cnn(CCCC(=O)O)c1 | > 47.6
CS(=O)(=O)Nc1ccc2c(c1)ncn2CCc1ccccc1 | > 47.3
CSc1ncccc1C(=O)Nc1cc(Cl)ccc1N1CCOCC1 | 4.4 (≈ 12.1 µM)
COC(=O)c1c(NC(=O)c2ccc(C)cc2)csc1C | < 0.6
O=[N+]([O-])c1ccc(N2CCN(c3ccc(F)cc3)CC2)cn1 | 3.5 (≈ 11.6 µM)
CN(CCS(=O)(=O)c1ccc(Cl)cc1)Cc1cccnc1 | > 48.7

Compound | solubility kinetic [µg/mL]
CC1CCN(S(=O)(=O)c2cnc[nH]2)CC1 | > 34.4
Cc1ccc(C(=O)CSc2nnc3n2CCCCC3)s1 | > 46.1
CN1CCC(CN)(N2CCN(c3ccccc3)CC2)CC1 | 41.9 (≈ 145 µM)
C=CCOc1cccc(/C=C/c2nc3ccccc3c(=O)[nH]2)c1 | > 45.7
COc1cccc(OC)c1C1=NC(C)(C)CO1 | > 35.3
OC(CN1CCOCC1)(c1ccccc1)c1ccccn1 (stereo not given) | > 42.7
CN(C)c1nc(C#N)nc(N(C)C)n1 | 22.3 (≈ 116 µM)
O=C(NCC(=O)N1CCCCCC1)c1ccc(Cl)cc1 | > 44.2
Clc1ncc(CN2CCN(c3ccccc3)CC2)s1 | 40.9 (≈ 139 µM)
COC(=O)c1ccc(C2NCCc3cc(OC)c(OC)cc32)cc1 (stereo not given) | > 49.1
CCOC(=O)N1CCN(c2nc(-c3ccccc3)c3ccccc3n2)CC1 | < 0.2
COc1ccc(NC(=O)N2CCOCC2)cc1 | > 35.4
Cc1[nH]c2ccccc2c(=O)c1CN1CCCCCC1 | > 40.6
CCCCC(=O)NC(=S)Nc1cc([N+](=O)[O-])ccc1OC | 0.7 (≈ 2.25 µM)
CC(CN1CCN(Cc2ccccc2)CC1)c1ccccc1.O=C(O)C(=O)O (stereo not given) | 7.2
CC(C(=O)N1CCN(c2ccccc2)CC1)c1ccc([N+](=O)[O-])cc1 (stereo not given) | 40.7 (≈ 120 µM)
CCCCc1ccc(NC(=O)c2cnccn2)cc1 | 4 (≈ 15.7 µM)
COc1ccc2[nH]c3c(c2c1)CC(C)NC3=O (stereo not given) | 33.3 (≈ 145 µM)
CC[N+](CC)(CC)CC(=O)Nc1c(C)cccc1C.[Br-] | > 51.5
COc1ccc(CNc2ncccn2)cc1OC | > 36.8
Cc1oncc1-c1csc(-c2ccccc2Cl)n1 | 0.6 (≈ 2.17 µM)

Compound | solubility kinetic [µg/mL]
CCC(C(=O)Nc1nc(C)c(C(=O)OC)s1)c1ccccc1 (stereo not given) | 22.6 (≈ 71 µM)
CC(C)c1ccc(OCC(=O)NC2CCCC2)cc1 | 30.2 (≈ 116 µM)
OCC1(Cc2ccccc2)CCCN(Cc2c[nH]c3ccccc23)C1 (stereo not given) | 36 (≈ 108 µM)
Cc1ccccc1CSc1ncnc2ccccc12 | 0.3 (≈ 1.13 µM)
CCOC(=O)c1ccc(CN2C(=O)c3ccccc3S2(=O)=O)cc1 | 0.9 (≈ 2.61 µM)
COc1cc(C2=NC(CO)(CO)CO2)cc(OC)c1OC | > 44.6
C=CCNC(=O)CN1CCC(c2nc3ccccc3[nH]2)CC1 | > 44.8
Cc1ccc(C2NC(c3ccc(C)cc3)C(C)C(=O)C2C)cc1 (stereo not given) | < 0.7
Cc1cccc2c1NC1(CCCC1)CC2C.Cl (stereo not given) | < 0.5
CCCN1CNC(=S)N(c2cccc(C)c2)C1 | 37.2 (≈ 149 µM)
Cn1c(=O)c2c(O)c([N+](=O)[O-])c(=O)n(C)c2n(C)c1=O | > 42.3
C[C@@H]1NC(=O)N(c2ccc(F)cc2)C1=O | 31.1 (≈ 149 µM)
CCc1ccc2[nH]c(C(=O)Nc3ccc4c(c3)OCO4)cc2c1 | 0.8 (≈ 2.59 µM)
O=C(NCCNC(=O)c1ccccn1)c1ccccc1 | 36 (≈ 134 µM)
COC(=O)CN1C(=O)N/C(=C/c2ccccc2OC)C1=O | > 43.5
Cc1cc(C)c(S(=O)(=O)Nc2ccccn2)c(C)c1 | 4.7 (≈ 17 µM)
CC(=O)/C(=C\N(C)C)Sc1ccc(Cl)cc1 | 17.6 (≈ 68.8 µM)
COc1ccc(S(=O)(=O)N2CCc3ccccc32)cc1C(=O)N1CCC(C)CC1 | 57.8 (≈ 139 µM)
O=C(NC(=O)c1ccccc1)Nc1ccc(Cl)cn1 | < 0.2
Cc1coc2cc3oc(=O)c(CCC(=O)NC4CC4)c(C)c3cc12 | 16.7 (≈ 51.3 µM)
CC(=O)N1CCCSC1=Nc1ccccc1 | > 35.1

Compound | solubility kinetic [µg/mL]
COc1ccccc1CC(=O)NCCc1ccccc1 | > 40.4
CSc1ccc(CN2CCc3c([nH]c4ccccc34)C2)cc1 | 2 (≈ 6.48 µM)
Cc1cc(NC(=O)CSc2c[nH]c3ccccc23)no1 | > 43.1
CCC(=O)OCCn1c(=O)c2ccccc2c2ccccc2c1=O | > 48.5
COc1ccc(S(=O)(=O)Nc2cc(Sc3ncn[nH]3)c(O)cc2C)cc1 | > 58.9
CN(C)c1nc(N)ncc1-c1ccc(Oc2ccccc2)cc1 | < 0.2
CCOc1cc(N2CCOCC2)c(OCC)cc1NC(=O)COC(=O)c1ccc(Cl)nc1 | 5.2 (≈ 11.2 µM)
CC(C)N(C(=O)CSc1nc2ccccc2c(=O)[nH]1)C(C)C | 46.4 (≈ 145 µM)
COC(=O)c1cn(S(=O)(=O)c2ccccc2)c2ccccc12 | 2 (≈ 6.34 µM)
Cc1ccc(C(=O)O)cc1NS(=O)(=O)c1ccc2ccccc2c1 | > 51.2
NC(=O)C1(C(N)=O)OC1c1ccc(Cl)c(Cl)c1 (stereo not given) | > 41.3
Cc1nc(N=C(N)N)nc2c(C)cccc12 | 29.8 (≈ 138 µM)
CC(=O)Nc1ccc(S(=O)(=O)N(C)CC(=O)OCC(=O)c2ccc[nH]2)cc1 | > 59
Cc1ccc(C(=O)NCC(=O)OCc2c(F)cccc2Cl)s1 | 9.2 (≈ 26.9 µM)
Cc1cccc(C)c1NC(=O)CSc1n[nH]c(=O)n1C1CC1 | > 47.8
O=C(Nc1ccccc1Br)c1cccc2ccccc12 | < 0.7
O=C(O)CSC(=S)N1CC2CC(C1)c1cccc(=O)n1C2 (stereo not given) | > 48.7
COc1ccc(NS(=O)(=O)c2cn(C)c(=O)n(C)c2=O)c(OC)c1 | > 53.3
Cc1ccc(S(=O)(=O)N(C)c2ccc(OC(=O)c3cccs3)cc2)cc1 | 1.2 (≈ 3.1 µM)

Results, then the compound that gave them:

solubility kinetic [µg/mL] | Compound
62.5 (≈ 150 µM) | CCOc1cccc(C2C(C(=O)c3ccc(C)o3)=C(O)C(=O)N2Cc2ccccc2)c1 (stereo not given)
10.5 (≈ 21.2 µM) | Cn1c(=O)c2c(ncn2CC(=O)Nc2cc(S(=O)(=O)N3CCCCC3)ccc2Cl)n(C)c1=O
2.2 (≈ 6.76 µM) | COc1ccc(C(=O)c2sc(Nc3ccccc3)nc2N)cc1
1.8 (≈ 5.64 µM) | CSc1ncccc1C(=O)Nc1nc2ccc(F)cc2s1
> 40.4 | COCC(C)NC(=S)Nc1ccccc1[N+](=O)[O-] (stereo not given)
> 49.7 | COc1cccc(-c2noc(CCC(=O)NCC3CCCO3)n2)c1 (stereo not given)
< 0.3 | Cc1ccc(NC(=O)Nc2ccc3c(c2)C(=O)OC3)cc1Cl
> 47.5 | C=CCOCCN(C)C1=NS(=O)(=O)c2ccccc21.Cl
2.5 (≈ 7.95 µM) | O=C(NCC(=O)c1ccccc1)OCc1ccc([N+](=O)[O-])cc1
16.3 (≈ 43.7 µM) | COc1ccccc1OCCC(=O)OCC(=O)Nc1ccc2c(c1)OCO2
55 (≈ 147 µM) | CCOP(=O)(OCC)/C(=N/OC(=O)c1cccc([N+](=O)[O-])c1)C(N)=O
17.8 (≈ 57.2 µM) | CCCNC(=O)c1csc(Nc2cccc3ccccc23)n1
> 56.5 | COc1ccccc1CN(C)C(=O)CSCC(=O)Nc1ccccc1F
31.9 (≈ 107 µM) | O=C(Nc1ccccc1)Oc1ccccc1N1CCOCC1
44.1 (≈ 137 µM) | O=C(CNS(=O)(=O)c1ccc(F)c(Cl)c1)N1CCCC1
> 43.4 | Cc1ccc(NC(=O)CCN2CCC(C(N)=O)CC2)cc1
> 50.6 | COC(=O)C1CCN(CC(=O)NC(=O)Nc2ccccc2F)CC1
26.2 (≈ 101 µM) | CC12CN3CC(C)(CN(C1)C3c1ccc(F)cc1)C2 (stereo not given)
> 59.9 | CC(Sc1nnc(NC2CC2)s1)C(=O)Nc1ccc(S(N)(=O)=O)cc1 (stereo not given)

solubility kinetic [µg/mL] | Compound
2.1 (≈ 6.42 µM) | Cc1ccc(OCC(=O)Nc2ccc3c(c2)CCC3)c([N+](=O)[O-])n1
43.2 (≈ 133 µM) | O=C(O)c1ccccc1C(=O)Nc1nc(-c2ccccc2)cs1
> 43.6 | CC(C)(C)c1ccc(C(=O)NCCN2CCOCC2)cc1
> 47.8 | O=S(=O)(NCCCN1CCOCC1)c1ccc(Cl)cc1
> 50.9 | c1ccc(N2CCOCCOCCOCCOCCOCC2)cc1
> 39 | O=C(NN=C1CCCC1)C1COc2ccccc2O1 (stereo not given)
35.3 (≈ 122 µM) | NC(=O)CCN1CCC(c2nc3ccccc3s2)CC1
33.5 (≈ 104 µM) | CCOc1cc(C2C(C#N)=C(N)Oc3cc(N)ccc32)ccc1O (stereo not given)
14.9 (≈ 41.6 µM) | O=C(Nc1ccccc1O)/C(=C\c1ccccc1)NC(=O)c1ccccc1
53 (≈ 115 µM) | CCCn1c(N)c(N(CCOC)C(=O)CSc2c(Cl)cccc2Cl)c(=O)[nH]c1=O
> 29.4 | NC(=Nc1ccccc1)c1ccccc1
3.3 (≈ 5.69 µM) | COc1cc(-c2cc(C(=O)Nc3cc(S(=O)(=O)N4CCOCC4)ccc3O)c3ccccc3n2)cc(OC)c1OC
45.9 (≈ 131 µM) | COc1cc2c(cc1OC)CN(CC(=O)NC(=O)NC(C)(C)C)CC2
> 45.3 | O=C(Nc1ccc(F)cc1)C1CC(=O)N(Cc2ccco2)C1 (stereo not given)
0.5 (≈ 1.55 µM) | COc1ccc(NC(=O)Cn2cc(C(C)=O)c3ccccc32)cc1
> 72.7 | Cn1c(N)c(C(=O)COC(=O)c2cc(S(=O)(=O)N3CCOCC3)ccc2F)c(=O)n(C)c1=O
> 46.6 | CCc1cccc(NS(=O)(=O)c2csc(C(N)=O)c2)c1
< 0.3 | CCCN(Cc1ccccc1)C(=S)Nc1cccc(C)c1C
> 55.8 | O=C(/C=C/c1cc(Br)ccc1F)OCC(=O)N1CCOCC1

Reference: PubChem BioAssay AID1996
